Test [1] concerns the target purified DHFR of strain 157/4696 of Staphylococcus aureus (Staphylococcus aureus, UniProt P13955). The experiment in a line: biochemical.
Test [2] concerns Staphylococcus aureus 101. The test is described as follows: MIC against Staphylococcus aureus 101. In kind it is cell-based. The following applies: Staphylococcus aureus 101, MRSA- and trimethoprim-resistant, clinical isolate, read-out: MIC Sa101.
The target in test [3] is T1, purified DHFR of strain Sp1/1 of Streptococcus pneumoniae (Streptococcus pneumoniae serotype 4, UniProt Q54801).
T1 sequence (Q54801 1-168 I100L): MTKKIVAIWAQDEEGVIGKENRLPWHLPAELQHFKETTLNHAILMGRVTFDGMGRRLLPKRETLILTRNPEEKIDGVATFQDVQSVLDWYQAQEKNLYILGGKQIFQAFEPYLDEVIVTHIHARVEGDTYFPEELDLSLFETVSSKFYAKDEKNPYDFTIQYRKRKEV
The test is classed as biochemical. The following applies: IC50 against purified DHFR of strain Sp1/1.

The test system of test [4] is Streptococcus pneumoniae 1/1. The experiment in a line: MIC against Streptococcus pneumoniae 1/1. The test is classed as cell-based. The following applies: Streptococcus pneumoniae 1/1, trimethoprim- and penicillin-resistant, serotype 6, clinical isolate, read-out: MIC Sp1/1.

In brackets after ≈: the same amount, converted by molar mass. Read-outs that look alike come from different tables or passages of the source.

From patent publication US6821980B1, “Substituted 5-benzyl-2,4-diaminopyrimidines” (Basilea Pharmaceutica AG, priority 1999, dated 2004) come the findings set out here.

purified DHFR of strain 157/4696 of Staphylococcus aureus, sequence (P13955 whole entry): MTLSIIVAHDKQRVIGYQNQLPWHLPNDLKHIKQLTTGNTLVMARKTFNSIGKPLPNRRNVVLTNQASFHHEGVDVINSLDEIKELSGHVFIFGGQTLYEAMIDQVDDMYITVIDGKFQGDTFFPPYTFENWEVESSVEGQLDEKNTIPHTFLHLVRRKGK

In general, IC50 refers to the concentration that inhibits the measured activity by half. High values mean lower potency, low ones higher potency. Regarding `CCOc1cc(Cc2cnc(N)nc2N)cc(OCC2CCC2)c1-c1ccc2c(c1)OCO2` [Example 10-a, 5-(4-Benzof[1.3]dioxol-5-yl-3-cyclobutylmethoxy-5-ethoxy-benzyl)-pyrimidine-2,4-diamine], the IC50 in test [1] turned out to be 1400 nM; in test [3] (Table 2), 34 nM. The MIC in test [2] (Table 2) and in test [4] (Table 2) was 8 µg/mL (≈ 17.8 µM) throughout.

As for `CCOc1cc(Cc2cnc(N)nc2N)cc(OCC2CC2)c1-c1ccc2c(c1)OCO2` [Example 10-b, 5-(4-Benzo[1.3]dioxol-5-yl-3-cyclopropylmethoxy-5-ethoxy-benzyl)-pyrimidine-2,4-diamine], the IC50 amounted to 2400 nM in test [1] and 40 nM in test [3] (Table 2). For the same compound, the values for the MIC in test [2] (Table 2) and in test [4] (Table 2) were 8 µg/mL (≈ 18.4 µM) and 2 µg/mL (≈ 4.6 µM), respectively.

Take `CCOc1cc(Cc2cnc(N)nc2N)cc(OCC(C)C)c1-c1ccc2c(c1)OCO2` [Example 10-c, 5-(4-Benzo[1,3]dioxol-5-yl-3-ethoxy-5-isobutoxy-benzyl)-pyrimidine-2,4-diamine]: the half-inhibitory concentration (IC50) in test [1] is 5000 nM; in test [3] (Table 2) it was 11 nM. Besides, the MIC was 8 µg/mL (≈ 18.3 µM) in test [2] (Table 2) and 4 µg/mL (≈ 9.16 µM) in test [4] (Table 2).

As to `CCOc1cc(Cc2cnc(N)nc2N)cc(OC2CCCC2)c1-c1ccc2c(c1)OCO2` [Example 10-d, 5-(4-Benzo[1,3]dioxol-5-yl-3-cyclopentyloxy-5-ethoxy-benzyl)-pyrimidine-2,4-diamine], the IC50 amounted to 1700 nM in test [1] and 42 nM in test [3] (Table 2). Also, the MIC in test [2] (Table 2) was found to be 4 µg/mL (≈ 8.92 µM); in test [4] (Table 2) it was 8 µg/mL (≈ 17.8 µM).

For the compound `CCOc1cc(Cc2cnc(N)nc2N)cc(OC2CCC2)c1-c1ccc2c(c1)OCO2` [Example 10-e, 5-(4-Benzo[1.31]dioxol-5-yl-3-cyclobutoxy-5-ethoxy-benzyl)-pyrmidine-2,4-diamine], the IC50 worked out at 1800 nM in test [1] and 50 nM in test [3] (Table 2). In addition, the MIC in test [2] (Table 2) and in test [4] (Table 2) was 8 µg/mL (≈ 18.4 µM) throughout.

Turning to `C=C(C)COc1cc(Cc2cnc(N)nc2N)cc(OCC)c1-c1ccc2c(c1)OCO2` [Example 10-f, 5-[4-Benzo[1.3]dioxol-5-yl-3-ethoxy-5-(2-methyl-allyloxy)-benzyl]-pyrimidine-2,4-diamine], the IC50 in test [1] came to 1800 nM; in test [3] (Table 2), 85 nM. In addition, the MIC in test [2] (Table 2) and in test [4] (Table 2) was 8 µg/mL (≈ 18.4 µM) each time.

Turning to `CCOc1cc(Cc2cnc(N)nc2N)cc(OCC2CC2)c1-c1ccc(N)c(C)c1` [Example 11-a], the figures for the IC50 in test [1] and in test [3] (Table 2) were 1800 nM and 18 nM, respectively. Also, the MIC in test [2] (Table 2) was determined as 8 µg/mL (≈ 19.1 µM); in test [4] (Table 2), 1 µg/mL (≈ 2.38 µM).

For the compound `CCOc1cc(Cc2cnc(N)nc2N)cc(OCC2CC2)c1-c1ccc(OC)c(N)c1` [Example 12-, 5-(3′-Amino-2-cyclopropylmethoxy-6-ethoxy-4′-methoxy-biphenyl-4-ylmethl)-pyrimidine-2,4-diamine], the IC50 in test [1] turned out to be 1800 nM; in test [3] (Table 2), 14 nM. For the same compound, the values for the MIC in test [2] (Table 2) and in test [4] (Table 2) were 8 µg/mL (≈ 18.4 µM) and 2 µg/mL (≈ 4.59 µM), respectively.

Take `CCOc1cc(Cc2cnc(N)nc2N)cc(OCC2CC2)c1-c1ccc(N)cc1` [Example 13-, 5-(4′-Amino-2-cyclopropylmethoxy-6-ethoxy-biphenyl-4-ylmethyl)-pyrimidine-2,4-diamine]: the values for the IC50 in test [1] and in test [3] (Table 2) were 1400 nM and 16 nM, respectively. Also, the MIC was found to be 8 µg/mL (≈ 19.7 µM) in test [2] (Table 2) and 2 µg/mL (≈ 4.93 µM) in test [4] (Table 2).

`CCOc1cc(Cc2cnc(N)nc2N)cc(OS(C)(=O)=O)c1-c1cccc(N)c1` [Example 14-a, Methanesulphonic acid 3′-amino-4-(2,4-diamino-gyrimidin-5-ylmethyl)-6-ethoxy-biphenyl-2-yl ester]: the figures for the IC50 in test [1] and in test [3] (Table 2) were 350 nM and 23 nM, respectively. For the same compound, the MIC amounted to 8 µg/mL (≈ 18.6 µM) in test [2] (Table 2) and 4 µg/mL (≈ 9.31 µM) in test [4] (Table 2).

As to `CCOc1cc(Cc2cnc(N)nc2N)cc(OS(=O)(=O)CC)c1-c1cccc(N)c1` [Example 14-b, Ethanesulphonic acid 3′-amino-4-(2,4-diamino-pyrimidin-5-ylmethyl)-6-ethoxy-biphenyl-2-yl ester], the results for the half-inhibitory concentration (IC50) in test [1] and in test [3] (Table 2) were 140 nM and 19 nM, respectively. For the same compound, the MIC in test [2] (Table 2) and in test [4] (Table 2) was 2 µg/mL (≈ 4.51 µM) in each case.

`CCCS(=O)(=O)Oc1cc(Cc2cnc(N)nc2N)cc(OCC)c1-c1cccc(N)c1` [Example 14-d]: the concentration for half-maximal inhibition (IC50) in test [1] was determined as 82 nM; in test [3] (Table 2), 16 nM. The MIC in test [2] (Table 2) was 2 µg/mL (≈ 4.37 µM); in test [4] (Table 2), 1 µg/mL (≈ 2.19 µM).

As for `CCOc1cc(Cc2cnc(N)nc2N)cc(OS(=O)(=O)c2ccc(OC)c(F)c2)c1-c1cccc(N)c1` [Example 14-e, 3-Fluoro-4-methoxy-benzenesulphonic acid 3′-amino-4-(2,4-diamino-pyrimidin-5-ylmethyl)-6-ethoxy-biphenyl-2-yl ester], the IC50 in test [1] was 410 nM; in test [3] (Table 2) it was 12 nM. The MIC was 8 µg/mL (≈ 14.8 µM) in test [2] (Table 2) and 1 µg/mL (≈ 1.85 µM) in test [4] (Table 2).

For `CCOc1cc(Cc2cnc(N)nc2N)cc(OS(=O)(=O)c2cccs2)c1-c1cccc(N)c1` [Example 14-f, Thiophene-2-sulphonic acid 3′-amino-4-(2,4-diamino-pyrimidin-5-ylmethyl)-6-ethoxy-biphenyl-2-yl ester], the half-inhibitory concentration (IC50) in test [1] worked out at 320 nM; in test [3] (Table 2) it was 1.8 nM. The figures for the MIC in test [2] (Table 2) and in test [4] (Table 2) were 4 µg/mL (≈ 8.04 µM) and 1 µg/mL (≈ 2.01 µM), respectively.

In the case of `CCOc1cc(Cc2cnc(N)nc2N)cc(OS(=O)(=O)CC(C)C)c1-c1cccc(N)c1` [Example 14-h, 2-Methyl-propane-1-sulphonic acid 3′-amino-4-(2,4-diamino-Dyrimidin-5-ylmethyl)-6-ethoxy-biphenyl-2-yl ester], the half-maximal inhibitory concentration (IC50) came out at 320 nM in test [1] and 4.8 nM in test [3] (Table 2). The MIC in test [2] (Table 2) amounted to 2 µg/mL (≈ 4.24 µM); in test [4] (Table 2), 0.5 µg/mL (≈ 1.06 µM).

As for `CCOc1cc(Cc2cnc(N)nc2N)cc(OS(=O)(=O)CC(C)(C)C)c1-c1cccc(N)c1` [Example 14-i, 2,2-Dimethyl-propane-1-sulphonic acid 3′-amino-4-(2,4-diamino-pyrimidin-5-ylmethyl)-6-ethoxy-biphenyl-2-yl ester], the half-maximal inhibitory concentration (IC50) was determined as 220 nM in test [1] and 5.4 nM in test [3] (Table 2). Also, the figures for the MIC in test [2] (Table 2) and in test [4] (Table 2) were 8 µg/mL (≈ 16.5 µM) and 0.5 µg/mL (≈ 1.03 µM), respectively.

With `CCOc1cc(Cc2cnc(N)nc2N)cc(OS(=O)(=O)C(C)C)c1-c1cccc(N)c1` [Example 14c, Propane-2-sulphonic acid 3′-amino-4-(2,4-diamino-pyrimidin-5-ylmethyl)-6-ethoxy-biphenyl-2-yl ester], the IC50 worked out at 61 nM in test [1] and 20 nM in test [3] (Table 1). For the same compound, the MIC in test [2] (Table 1) and in test [4] (Table 1) was 1 µg/mL (≈ 2.19 µM) in each case.

In the case of `CCOc1cc(Cc2cnc(N)nc2N)cc(OS(=O)(=O)C(C)CC)c1-c1cccc(N)c1` (stereo not drawn) [Example 14g, Butane-2-sulphonic acid 3′-amino-4-(2,4-diamino-pvrimidin-5-ylmethyl)-6-ethoxy-biphenyl-2-yl ester], the IC50 was 30 nM in test [1] and 3.7 nM in test [3] (Table 1). For the same compound, the MIC in test [2] (Table 1) and in test [4] (Table 1) was 1 µg/mL (≈ 2.12 µM) each time.

Consider `CCOc1cc(Cc2cnc(N)nc2N)cc(OS(C)(=O)=O)c1-c1ccc(O)cc1` [Example 15-a, Methanesulphonic acid 4-(2,4-diamino-pyrimidin-5-ylmethyl)-6-ethoxy-4′-hydroxy-biphenyl-2-yl ester], for which the IC50 in test [1] worked out at 550 nM; in test [3] (Table 2), 32 nM. Further, the MIC turned out to be 8 µg/mL (≈ 18.6 µM) in test [2] (Table 2) and 4 µg/mL (≈ 9.29 µM) in test [4] (Table 2).

With `CCOc1cc(Cc2cnc(N)nc2N)cc(OS(=O)(=O)CC)c1-c1ccc(O)cc1` [Example 15-b, Ethanesulphonic acid 4-(2,4-diamino-pyrimidin-5-ylmethyl)-6-ethoxy-4′-hydroxy-biphenyl-2-yl ester], the IC50 in test [1] was determined as 180 nM; in test [3] (Table 2) it was 23 nM. Also, the MIC in test [2] (Table 2) is 4 µg/mL (≈ 9 µM); in test [4] (Table 2) it was 2 µg/mL (≈ 4.5 µM).

Consider `CCOc1cc(Cc2cnc(N)nc2N)cc(OS(=O)(=O)C(C)C)c1-c1ccc(O)cc1` [Example 15-c, Propane-2-sulphonic acid 4-(2,4-diamino-pyrimidin-5-ylmethyl)-6-ethoxy-4′-hydroxy-biphenyl-2-yl ester], for which the values for the IC50 in test [1] and in test [3] (Table 2) were 64 nM and 12 nM, respectively. Further, the MIC in test [2] (Table 2) and in test [4] (Table 2) was 1 µg/mL (≈ 2.18 µM) throughout.

On to `CCCS(=O)(=O)Oc1cc(Cc2cnc(N)nc2N)cc(OCC)c1-c1ccc(O)cc1` [Example 15-d, Propane-1-sulphonic acid 4-(2,4-diamino-primidin-5-ylmethyl)-6-ethoxy-4′-hydroxy-biphenyl-2-yl ester], for which the IC50 in test [1] was 62 nM; in test [3] (Table 2), 18 nM. The MIC came to 2 µg/mL (≈ 4.36 µM) in test [2] (Table 2) and 1 µg/mL (≈ 2.18 µM) in test [4] (Table 2).

Turning to `CCOc1cc(Cc2cnc(N)nc2N)cc(OS(=O)(=O)C2CC2)c1-c1ccc(O)cc1` [Example 15-e, Cylopropanesulphonic acid 4-(2,4-diamino-pyrimidin-5-ylmethyl)-6-ethoxy-4′-hydroxn-biphenyl-2-yl ester], the IC50 in test [1] stood at 94 nM; in test [3] (Table 2) it was 12 nM. For the same compound, the MIC was found to be 8 µg/mL (≈ 17.5 µM) in test [2] (Table 2) and 1 µg/mL (≈ 2.19 µM) in test [4] (Table 2).

`CCOc1cc(Cc2cnc(N)nc2N)cc(OS(=O)(=O)CC(C)C)c1-c1ccc(O)cc1` [Example 15-f, 2-Methyl-propane-1-sulphonic acid 4-(2,4-diamino-pyrimidin-5-ylmethyl)-6-ethoxy-4′-hydroxy-biphenyl-2-yl ester]: the 50% inhibitory concentration (IC50) in test [1] turned out to be 380 nM; in test [3] (Table 2) it was 6.7 nM. In addition, the MIC in test [2] (Table 2) is 4 µg/mL (≈ 8.46 µM); in test [4] (Table 2), 0.5 µg/mL (≈ 1.06 µM).
